The values below come from patent US11459341B1, “Organic anion lithium ionic cocrystal compounds and compositions” (UNIVERSITY OF SOUTH FLORIDA, priority 2013, dated 2022).

In the assay the test system is BV2 microglia cells. The assay can be described thus: NO (nitrite) production by LPS-activated BV2 microglia, Griess Reagent System. The format is cell-based. Conditions: treated 1 hour before 100 ng/ml LPS, nitrite in media 24 hours later. How it is done: BV2 microglia cells were treated with LIC (LiCl), LSC (Lithium saccharinate), LSCBTN and LSCSAR at 12.5 and 25 mM in DMEM for 1 hour prior to activation of microglia by 100 ng/ml LPS. Nitrite (NO^2−), a stable breakdown product of NO, was measured in the media 24 hours later using a Griess Reagent System (Promega).

Take `[Cl-].[Li+]` [LIC, LiCl]: the “inhibition of NO production by LPS-activated BV2 microglia” value (25 mM) was “only partially effective”. For `O=C1[N-]S(=O)(=O)c2ccccc21.[Li+]` [LSC, Lithium saccharinate], under “12.5 and 25 mM (both/all concentrations tested)”, the “attenuation of NO production by LPS-activated BV2 microglia, comparison between lithium forms” value is listed as “outperformed LIC”.
